Source: ChEMBL document CHEMBL3763148, “Synthesis, structure elucidation, DNA-PK and PI3K and anti-cancer activity of 8- and 6-aryl-substituted-1-3-benzoxazines” (Eur J Med Chem, 2016)

How the values were obtained:
[1] = biological target: T1, Phosphatidylinositol 4,5-bisphosphate 3-kinase catalytic subunit alpha isoform (Homo sapiens, UniProt P42336); test: Inhibition of PI3Kalpha (unknown origin) incubated for 60 mins by kinase-glo luminescence assay
[2] = biological target: T2, Phosphatidylinositol 4,5-bisphosphate 3-kinase catalytic subunit beta isoform (Homo sapiens, UniProt P42338); test: Inhibition of PI3Kbeta (unknown origin) at 10 uM incubated for 60 mins by kinase-glo luminescence assay
Target sequence in this assay (P42338 whole entry, looked up, canonical isoform): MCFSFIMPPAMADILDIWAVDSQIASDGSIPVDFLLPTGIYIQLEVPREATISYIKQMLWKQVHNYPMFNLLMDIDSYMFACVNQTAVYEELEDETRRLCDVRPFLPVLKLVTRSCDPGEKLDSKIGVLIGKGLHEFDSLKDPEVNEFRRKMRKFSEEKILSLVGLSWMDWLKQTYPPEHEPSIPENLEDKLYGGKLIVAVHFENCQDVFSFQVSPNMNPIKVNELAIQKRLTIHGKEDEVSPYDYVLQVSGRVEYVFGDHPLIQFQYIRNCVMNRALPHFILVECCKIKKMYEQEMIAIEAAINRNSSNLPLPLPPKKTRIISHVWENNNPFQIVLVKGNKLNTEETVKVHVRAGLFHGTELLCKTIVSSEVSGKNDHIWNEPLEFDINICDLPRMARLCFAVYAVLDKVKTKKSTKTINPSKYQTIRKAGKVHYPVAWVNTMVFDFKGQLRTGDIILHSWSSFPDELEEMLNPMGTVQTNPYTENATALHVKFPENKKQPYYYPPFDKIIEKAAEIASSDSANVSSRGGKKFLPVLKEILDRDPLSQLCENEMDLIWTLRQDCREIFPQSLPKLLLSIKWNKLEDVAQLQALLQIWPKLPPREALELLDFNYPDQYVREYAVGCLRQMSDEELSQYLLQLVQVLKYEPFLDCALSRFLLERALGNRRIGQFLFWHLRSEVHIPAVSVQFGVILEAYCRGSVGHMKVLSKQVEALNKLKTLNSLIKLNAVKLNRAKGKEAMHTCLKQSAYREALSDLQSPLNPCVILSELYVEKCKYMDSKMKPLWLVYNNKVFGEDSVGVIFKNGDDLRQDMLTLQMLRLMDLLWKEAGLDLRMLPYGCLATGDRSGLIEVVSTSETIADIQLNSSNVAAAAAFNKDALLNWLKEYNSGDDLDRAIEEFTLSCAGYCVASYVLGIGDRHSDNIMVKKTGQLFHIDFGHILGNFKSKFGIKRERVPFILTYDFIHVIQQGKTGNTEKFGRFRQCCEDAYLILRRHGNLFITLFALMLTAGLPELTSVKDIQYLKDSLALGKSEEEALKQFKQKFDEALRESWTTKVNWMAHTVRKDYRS

[3] = system: NCI-H226; test: Cytotoxicity against human NCI-H226 cells assessed as cell growth inhibition at 10 uM after 48 hrs by SRB assay relative to control; format: functional; settings: NCI-H226, 48 h, read-out: GI
[4] = biological target: T1, Phosphatidylinositol 4,5-bisphosphate 3-kinase catalytic subunit alpha isoform; test: Inhibition of PI3Kalpha (unknown origin) at 10 uM incubated for 60 mins by kinase-glo luminescence assay
[5] = biological target: T2, Phosphatidylinositol 4,5-bisphosphate 3-kinase catalytic subunit beta isoform; test: Inhibition of PI3Kbeta (unknown origin) incubated for 60 mins by kinase-glo luminescence assay
Target sequence in this assay (P42338 whole entry, canonical isoform): as the sequence (P42338 whole entry, looked up, canonical isoform) above

[6] = organism: Homo sapiens; test: Selectivity ratio of IC50 for PI3Kbeta (unknown origin) to IC50 for human DNA-PK
[7] = biological target: T3, Phosphatidylinositol 4,5-bisphosphate 3-kinase catalytic subunit delta isoform (Homo sapiens) (UniProt O00329); test: Inhibition of PI3Kdelta (unknown origin) at 10 uM incubated for 60 mins by kinase-glo luminescence assay
T3 sequence (whole entry): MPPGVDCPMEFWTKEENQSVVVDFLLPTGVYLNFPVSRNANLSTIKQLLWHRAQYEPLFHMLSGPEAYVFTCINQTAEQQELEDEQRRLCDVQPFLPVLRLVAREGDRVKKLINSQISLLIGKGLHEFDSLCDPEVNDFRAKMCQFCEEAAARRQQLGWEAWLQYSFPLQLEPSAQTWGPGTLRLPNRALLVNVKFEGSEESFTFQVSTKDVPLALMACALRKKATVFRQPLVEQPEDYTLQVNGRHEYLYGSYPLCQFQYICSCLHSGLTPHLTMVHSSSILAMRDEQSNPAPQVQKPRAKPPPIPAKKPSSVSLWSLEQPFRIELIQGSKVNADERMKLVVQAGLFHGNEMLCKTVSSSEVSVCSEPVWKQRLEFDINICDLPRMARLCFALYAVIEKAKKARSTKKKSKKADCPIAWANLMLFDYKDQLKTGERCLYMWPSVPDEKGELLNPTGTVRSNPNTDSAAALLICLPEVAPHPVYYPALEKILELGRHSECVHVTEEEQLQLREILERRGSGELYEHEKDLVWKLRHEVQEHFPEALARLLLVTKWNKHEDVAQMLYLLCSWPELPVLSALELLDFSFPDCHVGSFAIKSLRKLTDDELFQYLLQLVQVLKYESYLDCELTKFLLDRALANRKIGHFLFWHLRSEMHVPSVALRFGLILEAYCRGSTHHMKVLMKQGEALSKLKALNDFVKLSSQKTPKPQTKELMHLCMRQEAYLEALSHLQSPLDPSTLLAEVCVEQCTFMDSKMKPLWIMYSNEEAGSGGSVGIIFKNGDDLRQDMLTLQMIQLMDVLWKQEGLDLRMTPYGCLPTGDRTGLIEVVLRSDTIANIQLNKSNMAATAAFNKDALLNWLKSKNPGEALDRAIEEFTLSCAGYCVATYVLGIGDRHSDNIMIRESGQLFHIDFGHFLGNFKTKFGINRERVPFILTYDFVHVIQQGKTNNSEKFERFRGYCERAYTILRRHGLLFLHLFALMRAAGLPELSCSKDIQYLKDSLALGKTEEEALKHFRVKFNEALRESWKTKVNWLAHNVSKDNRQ

[8] = biological target: DNA-dependent protein kinase catalytic subunit (Homo sapiens, UniProt P78527); test: Inhibition of human DNA-PK using EPPLSQEAFADLWKK as substrate at 10 uM by HTRF assay

T1 sequence (P42336 whole entry, canonical isoform): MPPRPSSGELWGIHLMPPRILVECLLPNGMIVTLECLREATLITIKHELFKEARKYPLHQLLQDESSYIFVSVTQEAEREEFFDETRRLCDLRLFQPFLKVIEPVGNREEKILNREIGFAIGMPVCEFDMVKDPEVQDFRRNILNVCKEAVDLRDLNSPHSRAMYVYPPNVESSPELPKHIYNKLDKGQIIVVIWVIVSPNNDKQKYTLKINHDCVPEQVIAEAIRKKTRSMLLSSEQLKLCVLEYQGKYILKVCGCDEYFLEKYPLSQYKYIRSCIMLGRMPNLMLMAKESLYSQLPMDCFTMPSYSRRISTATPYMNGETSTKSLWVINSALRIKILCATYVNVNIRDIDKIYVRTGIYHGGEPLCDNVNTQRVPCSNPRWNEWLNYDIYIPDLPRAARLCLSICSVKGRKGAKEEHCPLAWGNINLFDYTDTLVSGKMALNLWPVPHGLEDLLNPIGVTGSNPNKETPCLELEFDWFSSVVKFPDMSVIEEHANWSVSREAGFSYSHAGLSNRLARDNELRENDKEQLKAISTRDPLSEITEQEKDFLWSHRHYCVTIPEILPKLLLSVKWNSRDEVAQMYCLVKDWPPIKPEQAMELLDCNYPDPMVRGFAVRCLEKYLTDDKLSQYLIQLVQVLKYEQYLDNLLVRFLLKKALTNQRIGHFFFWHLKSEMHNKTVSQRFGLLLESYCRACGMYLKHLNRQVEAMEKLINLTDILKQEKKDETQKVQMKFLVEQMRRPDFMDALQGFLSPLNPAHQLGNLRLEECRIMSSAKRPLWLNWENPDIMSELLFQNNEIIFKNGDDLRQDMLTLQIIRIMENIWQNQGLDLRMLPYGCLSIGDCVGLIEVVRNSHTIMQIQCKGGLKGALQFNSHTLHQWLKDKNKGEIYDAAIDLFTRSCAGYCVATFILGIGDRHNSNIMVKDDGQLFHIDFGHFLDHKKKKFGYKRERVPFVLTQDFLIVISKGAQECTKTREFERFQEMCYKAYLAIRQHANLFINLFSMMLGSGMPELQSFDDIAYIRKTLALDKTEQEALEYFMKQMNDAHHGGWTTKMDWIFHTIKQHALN

| Compound | IC50 [1] [µM] | inhibition [2] [%] | inhibition of growth at 10 µM [3] [%] | inhibition [4] [%] | IC50 [5] [µM] | Ratio IC50 [6] | inhibition [7] [%] | inhibition [8] [%] |
| --- | --- | --- | --- | --- | --- | --- | --- | --- |
| COc1ccc(-c2cccc3c(=O)nc(N4CCOCC4)oc23)cc1 | 2.8 | 22 | 15.1 | – | – | – | – | – |
| O=c1nc(N2CCOCC2)oc2c(-c3cccs3)cccc12 | 3.3 | 43 | 22 | – | – | – | – | – |
| NC(=O)c1ccc(-c2cccc3c(=O)nc(N4CCOCC4)oc23)cc1 | > 10 | 13 | 17.4 | – | – | – | – | – |
| O=c1nc(N2CCOCC2)oc2c(-c3cccc4c3sc3ccccc34)cccc12 | – | – | 38.6 | 25 | 5.8 | 170 | – | – |
| O=c1nc(N2CCOCC2)oc2c(-c3ccsc3)cccc12 | 3 | – | 21.9 | – | 3.4 | – | – | – |
| O=c1nc(N2CCOCC2)oc2c(-c3cccc4ccccc34)cccc12 | – | – | 33.4 | 34 | 5 | 8 | – | – |
| O=c1nc(N2CCOCC2)oc2c(-c3cccc4c3oc3ccccc34)cccc12 | – | – | 27.7 | 26 | 6.9 | – | – | – |
| O=c1nc(N2CCOCC2)oc2ccc(-c3cccc4c3sc3ccccc34)cc12 | – | 21 | 11.7 | 0 | – | – | 0 | 8 |
